Measured values from ChEMBL document CHEMBL1139984, “Potent and selective biphenyl azole inhibitors of adipocyte fatty acid binding protein (aFABP)” (Bioorg Med Chem Lett, 2007).
One block for each compound: values may come before it.

Tests used:
[1] = molecular target: Fatty acid-binding protein 5 (Homo sapiens, UniProt Q01469); assay: Displacement of 1,8-ANS from eFABP by fluorescence based-assay
[2] = molecular target: T1, Fatty acid-binding protein, adipocyte (Homo sapiens, UniProt P15090); assay: Displacement of 1,8-ANS from aFABP by fluorescence based-assay
T1 sequence (P15090 whole entry): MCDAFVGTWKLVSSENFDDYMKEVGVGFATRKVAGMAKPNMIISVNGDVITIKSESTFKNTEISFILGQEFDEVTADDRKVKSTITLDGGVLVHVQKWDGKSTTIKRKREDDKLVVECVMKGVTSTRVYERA

[3] = molecular target: Fatty acid-binding protein, heart (Homo sapiens, UniProt P05413); assay: Displacement of 1,8-ANS from mFABP by fluorescence based-assay
Chain of Fatty acid-binding protein, heart (P05413 whole entry): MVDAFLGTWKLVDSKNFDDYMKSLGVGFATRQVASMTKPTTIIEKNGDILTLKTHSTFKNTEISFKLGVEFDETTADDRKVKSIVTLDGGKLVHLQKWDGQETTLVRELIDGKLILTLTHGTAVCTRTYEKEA

Homo sapiens = organism: Homo sapiens; assay: Selectivity for aFABP over mFABP by 1,8-ANS fluorescence based-assay
[4] = molecular target: T1, Fatty acid-binding protein, adipocyte; assay: Displacement of [3H]2,3-bis[(2,4-dichlorobenzyl)oxy]benzoic acid from aFABP
[5] = molecular target: T1, Fatty acid-binding protein, adipocyte; assay: Binding affinity to aFABP

Chain of Fatty acid-binding protein 5 (Q01469 whole entry): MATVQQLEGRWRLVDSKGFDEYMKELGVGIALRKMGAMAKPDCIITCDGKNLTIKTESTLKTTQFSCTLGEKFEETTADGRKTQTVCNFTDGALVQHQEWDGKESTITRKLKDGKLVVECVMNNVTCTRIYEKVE

SMILES: O=C(O)COc1cccc(-c2ccccc2-c2cc(-c3ccccc3)c(-c3ccccc3)o2)c1
Ki [1]: > 2000 nM
Ki [2]: 36 nM
Ki [3]: > 1000 nM

SMILES: O=C(O)COc1cccc(-c2ccccc2-c2cc(-c3ccccc3)c(-c3ccccc3)[nH]2)c1
Ki [1]: > 2000 nM
Ki [2]: 12 nM
Ki [3]: > 1000 nM

SMILES: O=C(O)COc1cccc(-c2ccccc2-c2nc(-c3ccccc3)c(-c3ccccc3)n2CCF)c1
Ki [1]: > 2000 nM
Ki [2]: < 2 nM
Ki [3]: > 1000 nM
Ki [4]: 8.7 nM

SMILES: CCc1c(-c2ccccc2)c(-c2ccccc2)nn1-c1ccccc1-c1cccc(C(O)C(=O)O)c1 (stereo not given)
Ki [1]: 550 nM
Ki [2]: 28 nM
Ki [3]: 360 nM

SMILES: Cn1c(-c2ccccc2-c2cccc(NCC(=O)O)c2)nc(-c2ccccc2)c1-c1ccccc1
Ki [1]: > 2000 nM
Ki [2]: 2.7 nM
Ki [3]: > 1000 nM
Ki [4]: 48 nM

SMILES: [3H]c1c(Cl)ccc(COc2cccc(C(=O)O)c2OCc2ccc(Cl)c([3H])c2Cl)c1Cl
Kd [5]: 21 nM
Ki [1]: 2 nM
Ki [2]: 2 nM
Ki [3]: 4 nM

SMILES: Cn1c(-c2ccccc2-c2cccc(OCC(=O)O)c2)nc(-c2ccccc2)c1-c1ccccc1
Ki [2]: < 2 nM
Ki [3]: > 1000 nM
Ki [4]: 13 nM

SMILES: CCn1c(-c2ccccc2-c2cccc(OCC(=O)O)c2)nc(-c2ccccc2)c1-c1ccccc1
Ki [2]: < 2 nM
Ki [3]: > 1000 nM
Ki [4]: 3.3 nM

SMILES: CCc1c(-c2ccccc2-c2cccc(OCC(=O)O)c2)oc(-c2ccccc2)c1-c1ccccc1
Ki [2]: 3.5 nM
Ki [3]: 220 nM
Ki [4]: 32 nM

SMILES: CCCCCCCC/C=C\CCCCCCCC(=O)O [OLEIC ACID]
Ki [1]: 248 nM

SMILES: O=C(O)CNc1cccc(-c2ccccc2-c2nc(-c3ccccc3)c(-c3ccccc3)n2CC(=O)O)c1
Ki [1]: > 2000 nM
Ki [2]: > 2000 nM
Ki [3]: > 1000 nM

SMILES: O=C(O)CCCCOc1ccccc1-c1nc(-c2ccccc2)c(-c2ccccc2)o1
Ki [1]: > 2000 nM
Ki [2]: 58 nM
Ki [3]: 32 nM

Other lines, results leading:

Ki [1]: > 2000 nM
Ki [2]: 6 nM
Ki [3]: > 1000 nM
Ratio Ki (Homo sapiens): 170
Ki [4]: 95 nM
SMILES: O=C(O)COc1cccc(-c2ccccc2-c2nc(-c3ccccc3)c(-c3ccccc3)o2)c1

Ki [1]: > 2000 nM
Ki [2]: 3.4 nM
Ki [3]: > 1000 nM
Ki [4]: 13 nM
SMILES: CCn1c(-c2ccccc2-c2cccc(NCC(=O)O)c2)nc(-c2ccccc2)c1-c1ccccc1

Ki [2]: 650 nM
Ki [3]: 110 nM
SMILES: CCc1c(-c2ccccc2)c(-c2ccccc2)nn1-c1ccccc1-c1cccc(C(=O)O)c1

Ki [1]: > 2000 nM
Ki [2]: 9.3 nM
Ki [3]: > 1000 nM
SMILES: O=C(O)COc1cccc(-c2ccccc2-c2nc(-c3ccccc3)c(-c3ccccc3)[nH]2)c1

Ki [1]: > 2000 nM
Ki [2]: 18 nM
Ki [3]: > 1000 nM
Ki [4]: 300 nM
SMILES: O=C(O)CNc1cccc(-c2ccccc2-c2nc(-c3ccccc3)c(-c3ccccc3)[nH]2)c1

Ki [1]: > 2000 nM
Ki [2]: 130 nM
Ki [3]: > 1000 nM
SMILES: CC(C)Cn1c(-c2ccccc2-c2cccc(NCC(=O)O)c2)nc(-c2ccccc2)c1-c1ccccc1

Kd [5]: 150 nM
Ki [4]: 1000 nM
SMILES: O=S(=O)(O)c1cccc2cccc(Nc3ccccc3)c12
